For one experiment, the target named is PI3K-alpha (Homo sapiens, UniProt P42336). As to the kind of experiment: PI3K-alpha fluorescence polarization assay. The class given is biochemical. The following applies: read-out: PI3Kα Avg. IC50.
For the next experiment, the target named is PI3K-gamma (Homo sapiens, UniProt P48736). The experiment in a line: PI3K-gamma fluorescence polarization assay. The class given is biochemical. The settings on record: PI3Kγ Avg. IC50. A digest of the protocol: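 FP displacement read-out: 100 nM GST-GRP1 PH domain plus 5 nM BODIPY-TMR-IP4 added after EDTA stop. Preceding kinase step: 5 ng enzyme, diC8-PI(4,5)P2 2.5 μM, ATP 25 μM, MgCl2 2.5 mM, HEPES 5 mM pH 7, one hour, 25° C.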
(In fluorescence polarisation assays a small probe gives low polarisation when free and higher when bound to something large.)

Chain of PI3K-alpha (P42336 whole entry, species assumed, the tested form may be a part): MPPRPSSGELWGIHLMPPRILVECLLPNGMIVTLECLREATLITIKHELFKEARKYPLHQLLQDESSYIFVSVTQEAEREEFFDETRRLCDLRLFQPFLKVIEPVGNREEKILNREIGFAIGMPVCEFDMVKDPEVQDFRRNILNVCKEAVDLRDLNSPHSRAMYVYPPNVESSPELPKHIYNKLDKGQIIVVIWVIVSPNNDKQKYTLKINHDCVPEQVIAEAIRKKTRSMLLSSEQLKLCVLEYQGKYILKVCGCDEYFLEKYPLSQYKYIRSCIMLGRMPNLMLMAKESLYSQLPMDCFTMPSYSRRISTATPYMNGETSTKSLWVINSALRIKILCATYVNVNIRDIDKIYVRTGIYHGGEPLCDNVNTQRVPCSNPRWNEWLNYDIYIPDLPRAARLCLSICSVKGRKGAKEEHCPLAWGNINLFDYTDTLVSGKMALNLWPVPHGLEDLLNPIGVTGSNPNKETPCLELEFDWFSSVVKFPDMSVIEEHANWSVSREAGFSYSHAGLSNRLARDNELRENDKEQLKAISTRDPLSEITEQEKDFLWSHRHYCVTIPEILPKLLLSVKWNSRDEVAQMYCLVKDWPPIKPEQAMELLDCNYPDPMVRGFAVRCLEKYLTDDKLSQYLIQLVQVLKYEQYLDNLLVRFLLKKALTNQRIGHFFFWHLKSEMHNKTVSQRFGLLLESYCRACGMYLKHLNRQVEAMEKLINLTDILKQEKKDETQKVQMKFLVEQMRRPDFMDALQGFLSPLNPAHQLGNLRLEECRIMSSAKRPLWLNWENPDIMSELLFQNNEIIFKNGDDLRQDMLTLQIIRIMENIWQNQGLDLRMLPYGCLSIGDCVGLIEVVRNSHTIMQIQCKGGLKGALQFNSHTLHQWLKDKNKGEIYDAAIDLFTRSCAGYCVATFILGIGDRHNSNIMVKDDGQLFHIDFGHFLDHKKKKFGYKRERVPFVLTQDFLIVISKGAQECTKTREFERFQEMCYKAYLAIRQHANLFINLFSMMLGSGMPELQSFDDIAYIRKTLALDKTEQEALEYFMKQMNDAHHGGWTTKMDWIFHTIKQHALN
Chain of PI3K-alpha (P27986 whole entry partner, species assumed, the tested form may be a part): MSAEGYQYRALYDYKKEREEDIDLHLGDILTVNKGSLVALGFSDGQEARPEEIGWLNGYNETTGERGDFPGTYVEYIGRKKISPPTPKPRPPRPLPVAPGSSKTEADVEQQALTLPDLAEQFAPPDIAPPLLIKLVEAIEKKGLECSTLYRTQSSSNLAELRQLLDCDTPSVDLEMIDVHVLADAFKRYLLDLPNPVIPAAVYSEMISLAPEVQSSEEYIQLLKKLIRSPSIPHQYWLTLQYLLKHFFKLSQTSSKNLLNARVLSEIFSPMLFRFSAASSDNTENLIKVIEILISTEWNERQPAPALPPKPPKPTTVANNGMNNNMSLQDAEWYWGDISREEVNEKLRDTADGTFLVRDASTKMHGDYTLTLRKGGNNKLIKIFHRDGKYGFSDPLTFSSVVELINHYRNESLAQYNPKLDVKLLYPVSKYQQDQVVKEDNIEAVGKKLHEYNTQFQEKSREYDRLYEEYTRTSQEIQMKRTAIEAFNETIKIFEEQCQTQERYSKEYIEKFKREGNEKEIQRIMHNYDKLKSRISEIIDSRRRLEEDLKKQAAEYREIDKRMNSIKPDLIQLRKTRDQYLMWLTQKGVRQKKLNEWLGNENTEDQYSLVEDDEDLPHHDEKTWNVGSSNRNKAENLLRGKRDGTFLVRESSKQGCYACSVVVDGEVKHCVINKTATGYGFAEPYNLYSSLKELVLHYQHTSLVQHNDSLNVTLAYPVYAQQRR
Chain of PI3K-gamma (P48736 whole entry, species assumed, the tested form may be a part): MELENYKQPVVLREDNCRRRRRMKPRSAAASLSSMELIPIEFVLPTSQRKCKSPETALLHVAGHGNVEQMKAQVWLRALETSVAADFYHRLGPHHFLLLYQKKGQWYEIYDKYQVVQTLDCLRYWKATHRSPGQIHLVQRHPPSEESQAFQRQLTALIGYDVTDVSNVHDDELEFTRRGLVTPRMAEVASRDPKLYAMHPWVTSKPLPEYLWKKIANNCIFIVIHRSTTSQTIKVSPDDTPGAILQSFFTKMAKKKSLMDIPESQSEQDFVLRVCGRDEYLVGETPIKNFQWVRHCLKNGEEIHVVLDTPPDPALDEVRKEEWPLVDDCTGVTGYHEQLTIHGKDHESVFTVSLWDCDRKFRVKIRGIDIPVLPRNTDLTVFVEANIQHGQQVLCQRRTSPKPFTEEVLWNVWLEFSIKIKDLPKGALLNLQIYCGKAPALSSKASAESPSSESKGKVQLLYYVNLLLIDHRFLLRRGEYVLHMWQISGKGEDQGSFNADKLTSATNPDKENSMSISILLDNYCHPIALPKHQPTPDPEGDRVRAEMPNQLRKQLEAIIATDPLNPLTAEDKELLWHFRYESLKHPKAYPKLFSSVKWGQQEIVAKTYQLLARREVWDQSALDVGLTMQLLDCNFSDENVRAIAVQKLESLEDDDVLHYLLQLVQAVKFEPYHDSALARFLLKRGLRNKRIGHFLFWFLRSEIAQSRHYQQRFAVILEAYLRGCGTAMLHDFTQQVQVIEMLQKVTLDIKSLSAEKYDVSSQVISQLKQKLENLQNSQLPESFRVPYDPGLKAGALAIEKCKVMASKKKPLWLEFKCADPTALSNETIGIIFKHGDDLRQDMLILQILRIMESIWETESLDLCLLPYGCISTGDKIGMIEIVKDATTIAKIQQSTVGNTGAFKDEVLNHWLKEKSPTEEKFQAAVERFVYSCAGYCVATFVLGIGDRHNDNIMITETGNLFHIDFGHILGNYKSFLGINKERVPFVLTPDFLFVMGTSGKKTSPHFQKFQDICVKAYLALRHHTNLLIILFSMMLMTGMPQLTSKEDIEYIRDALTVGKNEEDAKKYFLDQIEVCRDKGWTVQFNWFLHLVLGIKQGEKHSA

For `COc1cc(/C=C/CN2CCN(C)CC2)c2[nH]cc(/C=C3\Oc4cc(O)ccc4C3=O)c2c1` [Compound 545, (2Z)-6-hydroxy-2-({5-methoxy-7-[(1E)-3-(4-methylpiperazin-1-yl)prop-1-en-1-yl]-1H-indol-3-yl}methylene)-1-benzofuran-3(2H)-one], the IC50 (in general, the concentration needed to halve the response being measured) amounted to 40.5 nM on PI3K-alpha and 1240 nM on PI3K-gamma.
For `CCNC(=O)Nc1ccc2c(c1)C(=O)/C(=C/c1cn(CCCN(C)C)c3ccc(OC)cc13)O2` [Compound 547, 1-[(2Z)-2-({1-[3-(dimethylamino)propyl]-5-methoxy-1H-indol-3-yl}methylene)-3-oxo-2,3-dihydro-1-benzofuran-5-yl]-3-ethylurea], the half-inhibitory concentration (IC50) stood at 63 nM on PI3K-alpha and 2120 nM on PI3K-gamma.
Take `C#CCNC(=O)Nc1ccc2c(c1)C(=O)/C(=C/c1cn(CCN3CCN(C)CC3)c3ccc(OC)cc13)O2` [Compound 548, 1-[(2Z)-2-({5-methoxy-1-[2-(4-methylpiperazin-1-yl)ethyl]-1H-indol-3-yl}methylene)-3-oxo-2,3-dihydro-1-benzofuran-5-yl]-3-prop-2-yn-1-ylurea]: the IC50 at PI3K-alpha stood at 64.5 nM; on PI3K-gamma, 2790 nM.
The corresponding values for `COc1ccc2c(c1)c(/C=C1\Oc3ccc(NC(=O)NCCN)cc3C1=O)cn2CCN1CCN(C)CC1` [Compound 549, 1-(2-aminoethyl)-3-[(2Z)-2-({5-methoxy-1-[2-(4-methylpiperazin-1-yl)ethyl]-1Hindol-3-yl}methylene)-3-oxo-2,3-dihydro-1-benzofuran-5-yl]urea] are 13.5 nM and 2980 nM.
In the case of `C=CCNC(=O)Nc1ccc2c(c1)C(=O)/C(=C/c1cn(CCN3CCN(C)CC3)c3ccc(OC)cc13)O2` [Compound 550, 1-allyl-3-[(2Z)-2-({5-methoxy-1-[2-(4-methylpiperazin-1-yl)ethyl]-1H-indol-3-yl}methylene)-3-oxo-2,3-dihydro-1-benzofuran-5-yl]urea], the values for the 50% inhibitory concentration (IC50) on PI3K-alpha and on PI3K-gamma were 64.5 nM and 1130 nM, respectively.
The corresponding values for `COc1ccc2c(c1)c(/C=C1\Oc3ccc(NC(N)=O)cc3C1=O)cn2CCN1CCN(C)CC1` [Compound 551, 1-[(2Z)-2-({5-methoxy-1-[2-(4-methylpiperazin-1-yl)ethyl]-1H-indol-3-yl}methylene)-3-oxo-2,3-dihydro-1-benzofuran-5-yl]urea] are 192 nM and 3150 nM.
For `COc1ccc2c(c1)c(/C=C1\Oc3ccc(NC(=O)NC4CNC4)cc3C1=O)cn2CCN1CCN(C)CC1` [Compound 552, 1-azetidin-3-yl-3-[(2Z)-2-({5-methoxy-1-[2-(4-methylpiperazin-1-yl)ethyl]-1Hindol-3-yl}methylene)-3-oxo-2,3-dihydro-1-benzofuran-5-yl]urea], in that order: 355 nM and more than 10000 nM.
As for `CNC(=O)Nc1ccc2c(c1)C(=O)/C(=C/c1cn(CCN3CCN(C)CC3)c3ccc(OC)cc13)O2` [Compound 553, 1-[(2Z)-2-({5-methoxy-1-[2-(4-methylpiperazin-1-yl)ethyl]-1H-indol-3-yl}methylene)-3-oxo-2,3-dihydro-1-benzofuran-5-yl]-3-methylurea], the IC50 on PI3K-alpha came out at 31 nM; against PI3K-gamma it was 4830 nM.
For `COc1ccc2c(c1)c(/C=C1\Oc3ccc(NC(=O)NCCO)cc3C1=O)cn2CCCN(C)C` [Compound 554, 1-[(2Z)-2-({1-[3-(dimethylamino)propyl]-5-methoxy-1H-indol-3-yl}methylene)-3-oxo-2,3-dihydro-1-benzofuran-5-yl]-3-(2-hydroxyethyl)urea], in that order: 73 nM and 5260 nM.
The corresponding values for `COc1cc(/C=C/CN2CCCCC2)c2[nH]cc(/C=C3\Oc4cc(O)ccc4C3=O)c2c1` [Compound 555, (2Z)-6-hydroxy-2-({5-methoxy-7-[(1E)-3-piperidin-1-ylprop-1-en-1-yl]-1H-indol-3-yl}methylene)-1-benzofuran-3(2H)-one] are 48 nM and 1890 nM.
For `CNC(=O)Nc1ccc2c(c1)C(=O)/C(=C/c1c(C)n(CCN3CCN(C)CC3)c3ccc(OC)cc13)O2` [Compound 556, 1-[(2Z)-2-({5-methoxy-2-methyl-1-[2-(4-methylpiperazin-1-yl)ethyl]-1H-indol-3-yl}methylene)-3-oxo-2,3-dihydro-1-benzofuran-5-yl]-3-methylurea], the 50% inhibitory concentration (IC50) at PI3K-alpha is 2.15 nM; at PI3K-gamma, 835 nM.
`Cn1cc(/C=C2/Oc3cc(O)cc(O)c3C2=O)c2c(-c3ccccc3)cccc21` [Compound 557, (2E)-4,6-dihydroxy-2-[(1-methyl-4-phenyl-1H-indol-3-yl)methylene]-1-benzofuran-3(2H)-one]: the IC50 was 1200 nM on PI3K-alpha and more than 10000 nM at PI3K-gamma.
For `CNC(=O)Nc1ccc2c(c1)C(=O)/C(=C/c1c(C3CC3)n(CCN3CCN(C)CC3)c3ccc(OC)cc13)O2` [Compound 559, 1-[(2Z)-2-({2-cyclopropyl-5-methoxy-1-[2-(4-methylpiperazin-1-yl)ethyl]-1Hindol-3-yl}methylene)-3-oxo-2,3-dihydro-1-benzofuran-5-yl]-3-methylurea], in that order: 2.25 nM and 537 nM.
For `COc1ccc2c(c1)c(/C=C1\Oc3ccc(NC(=O)NC4CC4)cc3C1=O)cn2CCCN(C)C` [Compound 560, 1-cyclopropyl-3-[(2Z)-2-({1-[3-(dimethylamino)propyl]-5-methoxy-1H-indol-3-yl}methylene)-3-oxo-2,3-dihydro-1-benzofuran-5-yl]urea], the values for the IC50 on PI3K-alpha and at PI3K-gamma were 132 nM and 1600 nM, respectively.
For `CNC(=O)Nc1ccc2c(c1)C(=O)/C(=C/c1c(C3CCCC3)n(CCN3CCN(C)CC3)c3ccc(OC)cc13)O2` [Compound 561, 1-[(2Z)-2-({2-cyclopentyl-5-methoxy-1-[2-(4-methylpiperazin-1-yl)ethyl]-1Hindol-3-yl}methylene)-3-oxo-2,3-dihydro-1-benzofuran-5-yl]-3-methylurea], in that order: 3.15 nM and 378 nM.
`CNC(=O)Nc1ccc2c(c1)C(=O)/C(=C/c1c(C3CCC3)n(CCN3CCN(C)CC3)c3ccc(OC)cc13)O2` [Compound 562, 1-[(2Z)-2-({2-cyclobutyl-5-methoxy-1-[2-(4-methylpiperazin-1-yl)ethyl]-1H-indol-3-yl}methylene)-3-oxo-2,3-dihydro-1-benzofuran-5-yl]-3-methylurea]: the half-inhibitory concentration (IC50) on PI3K-alpha was determined as 2.85 nM; against PI3K-gamma it was 209 nM.
For `CNCCNC(=O)Nc1ccc2c(c1)C(=O)/C(=C/c1cn(CCN3CCN(C)CC3)c3ccc(OC)cc13)O2` [Compound 563, 1-[(2Z)-2-({5-methoxy-1-[2-(4-methylpiperazin-1-yl)ethyl]-1H-indol-3-yl}methylene)-3-oxo-2,3-dihydro-1-benzofuran-5-yl]-3-[2-(methylamino)ethyl]urea], in that order: 35.5 nM and 5220 nM.
The corresponding values for `CNCCCNC(=O)Nc1ccc2c(c1)C(=O)/C(=C/c1cn(CCN3CCN(C)CC3)c3ccc(OC)cc13)O2` [Compound 564, 1-[(2Z)-2-({5-methoxy-1-[2-(4-methylpiperazin-1-yl)ethyl]-1H-indol-3-yl}methylene)-3-oxo-2,3-dihydro-1-benzofuran-5-yl]-3-[3-(methylamino)propyl]urea] are 95.5 nM and 7620 nM.
For `COc1ccc2c(c1)c(/C=C1\Oc3ccc(NC(=O)NCCCCN)cc3C1=O)cn2CCN1CCN(C)CC1` [Compound 565, 1-(4-aminobutyl)-3-[(2Z)-2-({5-methoxy-1-[2-(4-methylpiperazin-1-yl)ethyl]-1Hindol-3-yl}methylene)-3-oxo-2,3-dihydro-1-benzofuran-5-yl]urea], the figures for the concentration for half-maximal inhibition (IC50) on PI3K-alpha and against PI3K-gamma were 114 nM and more than 10000 nM, respectively.
The corresponding values for `COc1ccc2c(c1)c(/C=C1\Oc3ccc(NC(=O)NCCCN)cc3C1=O)cn2CCN1CCN(C)CC1` [Compound 566, 1-(3-aminopropyl)-3-[(2Z)-2-({5-methoxy-1-[2-(4-methylpiperazin-1-yl)ethyl]-1Hindol-3-yl}methylene)-3-oxo-2,3-dihydro-1-benzofuran-5-yl]urea] are 93.5 nM and 7790 nM.
For `CNC(=O)Nc1ccc2c(c1)C(=O)/C(=C/c1c[nH]c3c(/C=C/CN4CCOCC4)cc(OC)cc13)O2` [Compound 567, 1-[(2Z)-2-({5-methoxy-7-[(1E)-3-morpholin-4-ylprop-1-en-1-yl]-1H-indol-3-yl}methylene)-3-oxo-2,3-dihydro-1-benzofuran-5-yl]-3-methylurea], in that order: 164 nM and 1550 nM.
The corresponding values for `COc1ccc2c(c1)c(/C=C1\Oc3ccc(NC(=O)NCCCO)cc3C1=O)cn2CCCN(C)C` [Compound 568, 1-[(2Z)-2-({1-[3-(dimethylamino)propyl]-5-methoxy-1H-indol-3-yl}methylene)-3-oxo-2,3-dihydro-1-benzofuran-5-yl]-3-(3-hydroxypropyl)urea] are 477 nM and 3390 nM.
For the compound `COc1ccc2c(c1)c(/C=C1\Oc3ccc(NC(=O)NCCCN(C)C)cc3C1=O)cn2CCN1CCN(C)CC1` [Compound 569, 1-[3-(dimethylamino)propyl]-3-[(2Z)-2-({5-methoxy-1-[2-(4-methylpiperazin-1-yl)ethyl]-1H-indol-3-yl}methylene)-3-oxo-2,3-dihydro-1-benzofuran-5-yl]urea], the half-inhibitory concentration (IC50) at PI3K-alpha stood at 242 nM; at PI3K-gamma, 6500 nM.
Turning to `CNC(=O)Nc1ccc2c(c1)C(=O)/C(=C/c1c[nH]c3c(CN4CCOCC4)cc(OC)cc13)O2` [Compound 570, 1-[(2Z)-2-{[5-methoxy-7-(morpholin-4-ylmethyl)-1H-indol-3-yl]methylene}-3-oxo-2,3-dihydro-1-benzofuran-5-yl]-3-methylurea], the IC50 was 8410 nM on PI3K-alpha and 6490 nM at PI3K-gamma.

These data come from patent US20090311217A1, “3-SUBSTITUTED-1H-INDOLE COMPOUNDS, THEIR USE AS MTOR KINASE AND PI3 KINASE INHIBITORS, AND THEIR SYNTHESES” (priority 2008, published 2009).
